US12077503B2, “Substituted cyclic amides and their use as herbicides” (FMC CORPORATION, priority 2015, dated 2024)

Legend:
Type in all cases: in vivo
Kochia (Kochia scoparia) [1] = experiment: Test A preemergence; conditions: for Plant response rating, Kochia: 125 g ai/ha, preemergence, 0 to 100 scale (0 no effect, 100 complete control)
How it was run: (§1)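 Greenhouse, ~10 d after spray; visual injury vs untreated controls, 0 = no effect, 100 = complete control. Preemergence: directed soil spray over planted seeds. Postemergence: plants 2–10 cm, 1–2 leaf stage. Loam/sand blend. Compound in non-phytotoxic solvent with surfactant.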

[2] = tested on: barnyardgrass (Echinochloa crus-galli); experiment: Test A preemergence; conditions: for Plant response rating, Barnyardgrass: 125 g ai/ha, preemergence, 0 to 100 scale (0 no effect, 100 complete control)
How it was run: as §1

[3] = tested on: ryegrass, Italian (Italian ryegrass, Lolium multiflorum); experiment: Test A preemergence; conditions: for Plant response rating, Ryegrass, Italian: 125 g ai/ha, preemergence, 0 to 100 scale (0 no effect, 100 complete control)
How it was run: as §1

[4] = tested on: giant foxtail (Setaria faberii); experiment: Test A preemergence; conditions: for Plant response rating, Foxtail, Giant: 125 g ai/ha, preemergence, 0 to 100 scale (0 no effect, 100 complete control)
How it was run: as §1

[5] = tested on: ragweed (common ragweed, Ambrosia elatior); experiment: Test A preemergence; conditions: for Plant response rating, Ragweed: 125 g ai/ha, preemergence, 0 to 100 scale (0 no effect, 100 complete control)
How it was run: as §1

[6] = tested on: pigweed (Amaranthus retroflexus); experiment: Test A preemergence; conditions: for Plant response rating, Pigweed: 125 g ai/ha, preemergence, 0 to 100 scale (0 no effect, 100 complete control)
Kochia (Kochia scoparia) [7] = experiment: Test A postemergence; conditions: postemergence; for Kochia plant response rating: 125 g ai/ha, visual injury rating on 0 to 100 scale (0 no effect, 100 complete control), approx. 10 d; for Plant response rating, Kochia: 500 g ai/ha, 0 to 100 scale, 0 no effect, 100 complete control
How it was run: as §1

[8] = tested on: barnyardgrass (Echinochloa crus-galli); experiment: Test A postemergence
How it was run: as §1

[9] = tested on: Galium (catchweed bedstraw, Galium aparine); experiment: Test A postemergence; conditions: postemergence; for Galium plant response rating: 125 g ai/ha, visual injury rating on 0 to 100 scale (0 no effect, 100 complete control), approx. 10 d; for Plant response rating, Galium: 500 g ai/ha, 0 to 100 scale, 0 no effect, 100 complete control
How it was run: as §1

[10] = tested on: ryegrass, Italian (Italian ryegrass, Lolium multiflorum); experiment: Test A postemergence; conditions: postemergence; for Ryegrass, Italian plant response rating: 125 g ai/ha, visual injury rating on 0 to 100 scale (0 no effect, 100 complete control), approx. 10 d; for Plant response rating, Ryegrass, Italian: 500 g ai/ha, 0 to 100 scale, 0 no effect, 100 complete control
How it was run: as §1

[11] = tested on: giant foxtail (Setaria faberii); experiment: Test A postemergence; conditions: postemergence; for Foxtail, Giant plant response rating: 125 g ai/ha, visual injury rating on 0 to 100 scale (0 no effect, 100 complete control), approx. 10 d; for Plant response rating, Foxtail, Giant: 500 g ai/ha, 0 to 100 scale, 0 no effect, 100 complete control
How it was run: as §1

[12] = tested on: blackgrass (Alopecurus myosuroides); experiment: Test A postemergence
How it was run: as §1

[13] = tested on: ragweed (common ragweed, Ambrosia elatior); experiment: Test A postemergence; conditions: postemergence; for Ragweed plant response rating: 125 g ai/ha, visual injury rating on 0 to 100 scale (0 no effect, 100 complete control), approx. 10 d; for Plant response rating, Ragweed: 500 g ai/ha, 0 to 100 scale, 0 no effect, 100 complete control
How it was run: as §1

[14] = tested on: pigweed (Amaranthus retroflexus); experiment: Test A postemergence; conditions: postemergence; for Pigweed plant response rating: 125 g ai/ha, visual injury rating on 0 to 100 scale (0 no effect, 100 complete control), approx. 10 d; for Plant response rating, Pigweed: 500 g ai/ha, 0 to 100 scale, 0 no effect, 100 complete control
How it was run: as §1

corn (Zea mays) = experiment: Test A postemergence; conditions: postemergence; for Corn plant response rating: 125 g ai/ha, visual injury rating on 0 to 100 scale (0 no effect, 100 complete control), approx. 10 d; for Plant response rating, Corn: 500 g ai/ha, 0 to 100 scale, 0 no effect, 100 complete control
How it was run: as §1

[15] = tested on: wheat (Triticum aestivum); experiment: Test A postemergence; conditions: postemergence; for Wheat plant response rating: 125 g ai/ha, visual injury rating on 0 to 100 scale (0 no effect, 100 complete control), approx. 10 d; for Plant response rating, Wheat: 500 g ai/ha, 0 to 100 scale, 0 no effect, 100 complete control
How it was run: as §1

rice (Oryra sativa) = experiment: Test B flooded paddy test; conditions: Flood, 500 g ai/ha; 0 to 100 scale where 0 is no effect and 100 is complete control; 13 to 15 d
How it was run: (§2)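 2-leaf plants; pots flooded 3 cm over soil; cpd added to paddy water; depth held; greenhouse 13–15 d; visual rating vs controls, 0 = no effect, 100 = complete control.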

[16] = tested on: barnyardgrass (Echinochloa crus-galli); experiment: Test B flooded paddy test; conditions: Flood, 500 g ai/ha; 0 to 100 scale where 0 is no effect and 100 is complete control; 13 to 15 d
How it was run: as §2

[17] = tested on: sedge, umbrella (small-flower umbrella sedge, Cyperus difformis); experiment: Test B flooded paddy test; conditions: Flood, 500 g ai/ha; 0 to 100 scale where 0 is no effect and 100 is complete control; 13 to 15 d
How it was run: as §2

[18] = tested on: ducksalad (Heteranthera limosa); experiment: Test B flooded paddy test; conditions: Flood, 500 g ai/ha; 0 to 100 scale where 0 is no effect and 100 is complete control; 13 to 15 d
How it was run: as §2

[19] = Preemergence, 500 g ai/ha, 0 is no effect, 100 is complete control
[20] = 500 g ai/ha, postemergence, 0 to 100 scale, 0 no effect, 100 complete control
[21] = Postemergence, 125 g ai/ha, visual injury, 0 to 100 scale (0 no effect, 100 complete control), approx. 10 d
[22] = Preemergence, 500 g ai/ha, visual injury approx. 10 d
[23] = 125 g ai/ha, postemergence, visual injury rating on 0 to 100 scale (0 no effect, 100 complete control), approx. 10 d

| Compound | Plant response rating, Kochia (Kochia (Kochia scoparia) [1]) | Plant response rating, Barnyardgrass [2] | Plant response rating, Ryegrass, Italian [3] | Plant response rating, Foxtail, Giant [4] | Plant response rating, Ragweed [5] | Plant response rating, Pigweed [6] | Kochia plant response rating (Kochia (Kochia scoparia) [7]) | Plant response rating, Kochia (Kochia (Kochia scoparia) [7]) | Plant response rating, Barnyardgrass [8, 20] | Galium plant response rating [9] | Plant response rating, Galium [9] | Ryegrass, Italian plant response rating [10] | Plant response rating, Ryegrass, Italian [10] | Foxtail, Giant plant response rating [11] | Plant response rating, Foxtail, Giant [11] | Plant response rating, Blackgrass [12, 20] | Ragweed plant response rating [13] | Plant response rating, Ragweed [13] | Pigweed plant response rating [14] | Plant response rating, Pigweed [14] | further results |
| --- | --- | --- | --- | --- | --- | --- | --- | --- | --- | --- | --- | --- | --- | --- | --- | --- | --- | --- | --- | --- | --- |
| O=C1NCC(c2cccc(OCC(F)F)c2)C1C(=O)Nc1ccccc1F (racemic) [Compound 387] | 0 | 70 | 0 | 70 | 0 | 0 | 0 | 0 | 70 | 0 | 0 | 0 | 0 | 50 | 70 | 50 | 0 | 0 | 0 | 0 | Kochia plant response rating (0 to 100 scale) (Kochia (Kochia scoparia) [1]; [19]): 0; Barnyardgrass plant response rating (0 to 100 scale) [2, 19]: 80; Ryegrass, Italian plant response rating (0 to 100 scale) [3, 19]: 0; Foxtail, Giant plant response rating (0 to 100 scale) [4, 19]: 90; Ragweed plant response rating (0 to 100 scale) [5, 19]: 0; Pigweed plant response rating (0 to 100 scale) [6, 19]: 0; Plant response rating, Barnyardgrass [8, 21]: 70; Plant response rating, Blackgrass [12, 21]: 0; Corn plant response rating (corn (Zea mays)): 0; Plant response rating, Corn (corn (Zea mays)): 0; Wheat plant response rating [15]: 0; Plant response rating, Wheat [15]: 0; Plant response rating, Rice (rice (Oryra sativa)): 20; Plant response rating, Barnyardgrass [16]: 50; Plant response rating, Sedge, Umbrella [17]: 0; Plant response rating, Ducksalad [18]: 75 |
| Cc1cc(NC(=O)C2C(=O)NCC2c2cccc(OC(F)F)c2)ccc1F (stereo not drawn) [Compound 424] | 0 | 30 | 0 | 70 | 0 | 0 | 0 | 0 | 70 | 0 | 0 | 0 | 0 | 40 | 70 | 0 | 0 | 0 | 0 | 0 | Kochia plant response rating (0 to 100 scale, 0 is no effect, 100 is complete control) (Kochia (Kochia scoparia) [1]; [22]): 0; Barnyardgrass plant response rating (0 to 100 scale, 0 is no effect, 100 is complete control) [2, 22]: 90; Ryegrass, Italian plant response rating (0 to 100 scale, 0 is no effect, 100 is complete control) [3, 22]: 0; Foxtail, Giant plant response rating (0 to 100 scale, 0 is no effect, 100 is complete control) [4, 22]: 90; Ragweed plant response rating (0 to 100 scale, 0 is no effect, 100 is complete control) [5, 22]: 0; Pigweed plant response rating (0 to 100 scale, 0 is no effect, 100 is complete control) [6, 22]: 0; Barnyardgrass plant response rating [8, 23]: 50; Blackgrass plant response rating [12, 23]: 0; Corn plant response rating (corn (Zea mays)): 0; Plant response rating, Corn (corn (Zea mays)): 0; Wheat plant response rating [15]: 0; Plant response rating, Wheat [15]: 0; Plant response rating, Rice (rice (Oryra sativa)): 0; Plant response rating, Barnyardgrass [16]: 0; Plant response rating, Sedge, Umbrella [17]: 0; Plant response rating, Ducksalad [18]: 30 |
